Experimental data as given in BindingDB's records for patent US11542283 (Jiangsu Chia Tai Fenghai Pharmaceutical, 2023).

Molecular target: T1, Proteasome subunit beta type-5 (Homo sapiens, UniProt P28074)
T1 sequence (P28074 whole entry): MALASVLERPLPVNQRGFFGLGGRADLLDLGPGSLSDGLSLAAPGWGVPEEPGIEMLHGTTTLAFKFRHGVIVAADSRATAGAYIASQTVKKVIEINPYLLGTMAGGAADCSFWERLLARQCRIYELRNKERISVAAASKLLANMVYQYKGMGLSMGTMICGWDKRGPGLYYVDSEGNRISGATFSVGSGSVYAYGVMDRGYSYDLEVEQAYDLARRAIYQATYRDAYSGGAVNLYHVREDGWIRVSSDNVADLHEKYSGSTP
Assay: Proteasome Inhibitory Activity
Excerpt: The proteasome used in the present invention is human erythrocyte 20S proteasome, and the enzyme, fluorescent substrate and test buffer are all purchased from Enzo.

SMILES: CSC[C@H](NC(=O)c1cc(Cl)ccc1Cl)C(=O)N[C@@H](CC(C)C)B(O)O [US11542283, Compound IV-9]
- IC50: 4.86 nM

SMILES: CC(C)C[C@H](NC(=O)CNC(=O)c1cc(Cl)ccc1Cl)B1OC(=O)CC(CC(=O)O)(C(=O)O)O1 (some centres not stated) [US11542283, Compound MLN-9708]
- IC50: 7.47 nM
